Reference: patent publication US20220265646A1, “PIEZO AGONISTS FOR PREVENTING OR REVERTING ABNORMAL AMYLOID DEPOSITION” (ITÄ-SUOMEN YLIOPISTO, priority 2019, published 2022)

Key:
N2a cells = assay: Apoptosis assay in N2a cells under hypoxia; format: cell-based; settings: 5 μM Yoda1 three days, 1% hypoxia 24 h
Protocol: Apoptosis assay in N2a cells. N2a cells were treated with 5 μM Yoda1 or vehicle for three consecutive days and exposed to 1% hypoxia as described above for 24 h before collecting the cells for apoptosis assay. The apoptotic cells were labeled with APC Annexin Ready Flow -dye (1:12.5 dilution, Invitrogen, Carlsbad, Calif., USA) in Annexin V Binding Buffer (10 mM HEPES, 150 mM NaCl, 2.5 mM CaCl2 in PBS, pH 7.4). 4′,6-Diamidino-2-Phenylindole, Dilactate (DAPI; Invitrogen, Carlsbad, Calif., USA) staining was added at 1:3300 dilution to label late apoptotic and necrotic cells. The samples were run with CytoFLEX S instrument (Beckman Coulter Life Sciences, Indianapolis, Ind., USA), and the results were analysed with CytExpert software (version 2.3.0.84, Beckman Coulter Life Sciences, Indianapolis, Ind., USA). The results of hypoxic samples were normalized to corresponding normoxic samples.

[1] = tested on: Balb-c mice subjected to pMCAo; assay: Permanent middle cerebral artery occlusion (pMCAo) ischemic stroke model: MRI lesion size and adhesive removal test; format: in vivo, mouse; settings: 1.78 mg/kg i.v.
Protocol: Permanent middle cerebral artery occlusion for modelling ischemic stroke and treatment with Yoda. Balb-c mice were subjected to permanent middle cerebral artery occlusion (pMCAo). The anaesthesia was induced by 5% isoflurane in 30% oxygen and 70% nitrogen as a carrier gas and maintained with 2% isoflurane during the surgical operation. The temperature was kept constant (37 ±1° C.) using the heating blanket connected to the rectal probe (Harvard apparatus, PanLab, Barcelona, Spain). The temporal muscle was detached from the scull and a hole (1 mm of diameter) was drilled to temporal bone. After removing the dura the exposed left MCA was lifted and occluded using a thermocoagulator (Aaron Medical Industries Inc., Clearwater, Fla., USA). […]
Lesion size measurement. The lesion volume was measured in vivo at 24 h and 72 h post ischemia by magnetic resonance imaging (MRI) using a vertical 9.4 T Oxford NMR 400 magnet (Oxford Instrument PLC, Abington, UK). […] Multislice T2-weighted images (repetition time 3000 ms, echo time 40 ms, matrix size 128×256, field of view 19.2×19.2 mm^2, slice thickness 0.8 mm and number of slices 12) were taken and the obtained images were analyzed with in-house made Aedes software under the Matlab environment (Math-works, Natick, Mass., USA).

[2] = target: T1, Piezo channels in red blood cells (Mus musculus, UniProt E2JF22); assay: Red blood cell (RBC) Ca2+ flux by flow cytometry; format: cell-based; settings: 10 uM Yoda1, 17-23 weeks of age
T1 construct: from tissue; host or cells: red blood cells from blood of 5xFAD transgenic mice and wild-type controls
Protocol: The blood samples (50-100 μl) were collected from 5xFAD mice at different ages (13-15 weeks, 15-17 weeks, 17-19 weeks, 19-21 weeks and 21-23 weeks of age) for analysis of RBC Ca2 flux. Shortly, the blood samples were collected in Eppendorf tubes with sodium citrate to prevent coagulation. Then the samples were filtered through 100 μm filters to remove possible contaminants and aggregates, followed by two times wash with PBS (5 mins, 300g, RT) to remove plasma. 50 μl of red blood cells were transferred to dean tube and resuspended in 200 μl PBS (250 μl total volume of cell suspension). 250 μl of Fluo4 stock solution was added and cells were incubated for 30 minutes at 37° C. in dark. […] The Ca2+ flux was recorded by CytoFlex at high 60 μl/min flow rate. Recording was started at 20 sec run after the flow rate is stabilized, After 20 sec recording (baseline fluorescence), the Yoda1 at final concentration 10 μM was applied, at 4 min 20 sec time point (4 minutes after Yoda1 is added) ionomycin at 10 μM final concentration is added as positive control and sample is continued running until 6 min were up. Mean fluorescence intensity was measured using gates at different time points—baseline (before application of Yoda1 10 μM), at 1 min, 2 min, 3 min, at 4 min of recording. […]
The samples were recorded for 6 minutes. […]

T1 sequence (E2JF22 whole entry): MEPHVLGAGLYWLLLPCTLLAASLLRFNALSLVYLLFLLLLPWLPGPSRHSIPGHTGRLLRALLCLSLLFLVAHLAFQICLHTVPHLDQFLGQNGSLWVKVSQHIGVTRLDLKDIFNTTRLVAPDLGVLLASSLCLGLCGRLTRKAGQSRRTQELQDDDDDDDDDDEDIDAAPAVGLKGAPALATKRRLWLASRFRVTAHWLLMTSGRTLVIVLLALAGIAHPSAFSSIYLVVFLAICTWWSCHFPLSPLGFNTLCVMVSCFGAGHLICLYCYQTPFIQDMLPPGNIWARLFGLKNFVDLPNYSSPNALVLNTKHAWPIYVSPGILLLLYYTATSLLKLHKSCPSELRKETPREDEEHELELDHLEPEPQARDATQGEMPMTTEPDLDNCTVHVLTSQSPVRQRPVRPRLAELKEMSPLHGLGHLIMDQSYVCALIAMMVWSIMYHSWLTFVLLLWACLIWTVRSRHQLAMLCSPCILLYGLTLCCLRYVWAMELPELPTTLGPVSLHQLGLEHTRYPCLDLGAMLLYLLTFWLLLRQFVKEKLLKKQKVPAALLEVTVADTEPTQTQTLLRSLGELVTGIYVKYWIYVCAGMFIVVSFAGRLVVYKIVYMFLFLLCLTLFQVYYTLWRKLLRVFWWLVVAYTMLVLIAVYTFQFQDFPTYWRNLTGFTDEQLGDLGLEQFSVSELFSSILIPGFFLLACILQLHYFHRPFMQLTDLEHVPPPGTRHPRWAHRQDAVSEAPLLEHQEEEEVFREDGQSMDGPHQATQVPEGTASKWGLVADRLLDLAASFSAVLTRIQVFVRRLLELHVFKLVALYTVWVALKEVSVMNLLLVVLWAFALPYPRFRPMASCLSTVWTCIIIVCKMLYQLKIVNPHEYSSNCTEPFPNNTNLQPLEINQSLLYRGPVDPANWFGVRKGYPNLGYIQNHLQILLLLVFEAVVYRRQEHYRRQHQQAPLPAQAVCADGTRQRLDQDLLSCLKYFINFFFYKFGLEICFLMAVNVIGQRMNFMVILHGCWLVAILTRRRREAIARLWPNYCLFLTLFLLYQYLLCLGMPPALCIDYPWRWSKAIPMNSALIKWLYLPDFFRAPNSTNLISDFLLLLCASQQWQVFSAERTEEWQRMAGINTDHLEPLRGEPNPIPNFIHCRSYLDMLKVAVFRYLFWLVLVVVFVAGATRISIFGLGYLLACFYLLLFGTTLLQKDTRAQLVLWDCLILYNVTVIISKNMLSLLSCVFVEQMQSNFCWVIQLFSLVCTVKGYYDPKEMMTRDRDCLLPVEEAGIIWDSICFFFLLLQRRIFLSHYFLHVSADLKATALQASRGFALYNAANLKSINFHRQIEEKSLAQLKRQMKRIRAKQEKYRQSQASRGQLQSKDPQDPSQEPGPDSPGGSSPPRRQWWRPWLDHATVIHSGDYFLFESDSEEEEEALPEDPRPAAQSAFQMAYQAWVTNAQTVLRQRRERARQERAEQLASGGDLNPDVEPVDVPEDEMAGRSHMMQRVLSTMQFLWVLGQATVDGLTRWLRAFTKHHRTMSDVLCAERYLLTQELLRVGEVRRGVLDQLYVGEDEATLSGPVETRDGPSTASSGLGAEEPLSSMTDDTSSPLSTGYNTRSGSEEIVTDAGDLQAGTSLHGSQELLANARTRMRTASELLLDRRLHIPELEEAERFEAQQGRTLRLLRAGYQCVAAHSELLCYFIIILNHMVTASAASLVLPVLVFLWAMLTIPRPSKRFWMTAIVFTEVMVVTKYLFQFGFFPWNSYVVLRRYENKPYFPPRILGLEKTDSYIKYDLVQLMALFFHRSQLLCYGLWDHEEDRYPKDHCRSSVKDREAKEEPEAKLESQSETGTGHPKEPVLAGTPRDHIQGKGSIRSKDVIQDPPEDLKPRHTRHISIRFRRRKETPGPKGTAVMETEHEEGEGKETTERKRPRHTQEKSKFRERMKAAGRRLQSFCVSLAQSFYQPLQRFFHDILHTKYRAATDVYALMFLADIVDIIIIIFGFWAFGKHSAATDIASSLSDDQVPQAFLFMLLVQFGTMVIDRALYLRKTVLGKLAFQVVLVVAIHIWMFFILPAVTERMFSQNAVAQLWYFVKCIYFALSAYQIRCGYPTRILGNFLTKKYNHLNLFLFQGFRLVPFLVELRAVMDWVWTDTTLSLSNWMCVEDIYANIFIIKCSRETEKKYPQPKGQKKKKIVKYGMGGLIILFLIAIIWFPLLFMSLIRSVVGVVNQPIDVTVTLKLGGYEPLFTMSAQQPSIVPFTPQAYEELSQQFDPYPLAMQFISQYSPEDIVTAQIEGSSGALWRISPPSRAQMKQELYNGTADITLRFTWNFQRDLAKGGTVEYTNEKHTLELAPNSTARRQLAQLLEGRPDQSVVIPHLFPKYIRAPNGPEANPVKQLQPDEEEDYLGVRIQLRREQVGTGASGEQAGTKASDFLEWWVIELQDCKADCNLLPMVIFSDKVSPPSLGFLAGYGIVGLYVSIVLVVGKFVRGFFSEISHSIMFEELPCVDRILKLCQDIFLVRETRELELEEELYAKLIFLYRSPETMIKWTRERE

Clc1cccc(Cl)c1CSc1nnc(-c2cnccn2)s1 [Yoda1]
hypoxia-induced early apoptosis (N2a cells): almost completely block
hypoxia-induced late apoptosis (N2a cells): almost completely block
lesion size measured with MRI ([1]; 1 DPI and 3 DPI, versus vehicle): significantly smaller lesion size
ability to sense adhesive patches post stroke (adhesive removal test) ([1]; ischemic mice): no apparent deficits
Yoda1 elicited calcium responses in red blood cells, TG 5xFAD versus age-matched WT [2]: significantly lower
